The results in this text go back to patent US20250171459A1, “2-METHYL-4',5'-DIHYDROSPIRO[PIPERIDINE-4,7'-THIENO[2,3-C]PYRAN] DERIVATIVES AS INHIBITORS OF APOL1 AND METHODS OF USING SAME” (Vertex Pharmaceuticals Incorporated, priority 2022, published 2025).

This assay deals with T1, APOL1 (Homo sapiens, UniProt O14791).
T1 sequence (O14791 1-398 S342G/I384M): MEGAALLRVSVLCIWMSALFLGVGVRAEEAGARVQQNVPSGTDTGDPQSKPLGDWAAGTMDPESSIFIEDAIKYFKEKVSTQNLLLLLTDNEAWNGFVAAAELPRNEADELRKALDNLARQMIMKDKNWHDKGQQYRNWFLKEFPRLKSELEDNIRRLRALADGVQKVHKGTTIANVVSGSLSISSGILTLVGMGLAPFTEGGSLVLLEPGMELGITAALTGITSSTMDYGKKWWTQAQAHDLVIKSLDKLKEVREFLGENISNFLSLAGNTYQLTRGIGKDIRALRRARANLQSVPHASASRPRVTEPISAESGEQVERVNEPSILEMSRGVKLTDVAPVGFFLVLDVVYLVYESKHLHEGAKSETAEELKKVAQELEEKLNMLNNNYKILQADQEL
In words: MultiTox-Fluor Multiplex Cytotoxicity Assay in tet-inducible APOL1 T-REx-HEK293 cells (cell rescue, ratio of dead to live cells). In kind it is cell-based. As to conditions: tet-inducible transgenic APOL1 T-REx-HEK293 cell lines, 50 ng/mL tet, 24 hours; read-out: IP50 (i.e., IC50 for cell proliferation). A digest of the protocol: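 T-REx-HEK293 cells with tet-inducible APOL1 were treated with compound (10 μM top, 10-point 3-fold dilution, duplicate) plus 50 ng/mL tetracycline for 24 h at 37° C, in DMEM with 2% tet-free FBS. MultiTox-Fluor protease signals gave a dead/live ratio, normalized to no tet (100% viability) and tet alone (0%).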

Each structure is given as a SMILES string.

As for `CCc1cc2c(s1)CCO[C@@]21CCN(CC2CN(C(=O)CS(=O)(=O)c3ccccc3)C2)[C@@H](C)C1` [Compound 456], the IC50 is 0.1 to 0.5 µM.

Take `CCc1cc2c(s1)CCO[C@@]21CCN(CC2CN(C(=O)C(C)(C)C)C2)[C@@H](C)C1` [Compound 457]: the IC50 is 0.5 to 1 µM.

For the molecule `CCc1cc2c(s1)CCO[C@@]21CCN(CC2CN(C(=O)c3cnc(C#N)nc3)C2)[C@@H](C)C1` [Compound 458], the IC50 lay within 0.1 to 0.5 µM.

In the case of `CCc1cc2c(s1)CCO[C@@]21CCN(CC2CN(C(=O)CS(=O)(=O)CC)C2)[C@@H](C)C1` [Compound 459], the IC50 was less than 0.1 µM.

Regarding `CCc1cc2c(s1)CCO[C@@]21CCN(CC2CN(C(=O)c3c[nH]c(C(F)(F)F)n3)C2)[C@@H](C)C1` [Compound 460], the IC50 is less than 0.1 µM.

For the molecule `CCc1cc2c(s1)CCO[C@@]21CCN(CC2CN(C(=O)c3cc(C(F)F)[nH]n3)C2)[C@@H](C)C1` [Compound 461], the IC50 is less than 0.1 µM.

`CCc1cc2c(s1)CCO[C@@]21CCN(CC2CN(C(=O)c3cc(C(F)(F)F)n[nH]3)C2)[C@@H](C)C1` [Compound 462]: the IC50 was less than 0.1 µM.

With `CCc1cc2c(s1)CCO[C@@]21CCN(CC2CN(C(=O)c3ccc(=O)oc3)C2)[C@@H](C)C1` [Compound 463], the IC50 was in the range of 0.1 to 0.5 µM.

Consider `CCc1cc2c(s1)CCO[C@@]21CCN(CC2CN(C(=O)Cn3cnnn3)C2)[C@@H](C)C1` [Compound 464], for which the IC50 is less than 0.1 µM.

Take `CCc1cc2c(s1)CCO[C@@]21CCN(CC2CN(C(=O)CC3CCS(=O)(=O)C3)C2)[C@@H](C)C1` (stereo partly drawn) [Compound 465]: the IC50 is less than 0.1 µM.

For `CCc1cc2c(s1)CCO[C@@]21CCN(CC2CN(C(=O)c3ncc(OC)o3)C2)[C@@H](C)C1` [Compound 466], the IC50 was less than 0.1 µM.

On to `CCc1cc2c(s1)CCO[C@@]21CCN(CC2CN(C(=O)[C@@H]3CSC(=O)N3)C2)[C@@H](C)C1` [Compound 467], for which the IC50 is less than 0.1 µM.

In the case of `CCc1cc2c(s1)CCO[C@@]21CCN(CC2CN(C(=O)c3ncc[nH]3)C2)[C@@H](C)C1` [Compound 468], the IC50 was less than 0.1 µM.

Take `CCc1cc2c(s1)CCO[C@@]21CCN(CC2CN(C(=O)c3cc[nH]n3)C2)[C@@H](C)C1` [Compound 469]: the IC50 was less than 0.1 µM.

Turning to `CCc1cc2c(s1)CCO[C@@]21CCN(CC2CN(C(=O)c3ncc(C)[nH]3)C2)[C@@H](C)C1` [Compound 470], the IC50 was less than 0.1 µM.

Turning to `CCc1cc2c(s1)CCO[C@@]21CCN(CC2CN(C(=O)CCCc3c[nH]nn3)C2)[C@@H](C)C1` [Compound 471], the IC50 was less than 0.1 µM.

As for `CCc1cc2c(s1)CCO[C@@]21CCN(CC2CN(C(=O)C3CC(=O)NC3=O)C2)[C@@H](C)C1` (stereo partly drawn) [Compound 472], the IC50 was less than 0.1 µM.

For the molecule `CCc1cc2c(s1)CCO[C@@]21CCN(CC2CN(C(=O)[C@@H](C)NS(C)(=O)=O)C2)[C@@H](C)C1` [Compound 473], the IC50 was 0.1 to 0.5 µM.

Regarding `CCc1cc2c(s1)CCO[C@@]21CCN(CC2CN(C(=O)c3ncon3)C2)[C@@H](C)C1` [Compound 474], the IC50 is less than 0.1 µM.

On to `CCc1cc2c(s1)CCO[C@@]21CCN(CC2CN(C(=O)c3ccn(CO)n3)C2)[C@@H](C)C1` [Compound 475], for which the IC50 was less than 0.1 µM.

Consider `CCc1cc2c(s1)CCO[C@@]21CCN(CC2CN(C(=O)c3nnc(C)o3)C2)[C@@H](C)C1` [Compound 476], for which the IC50 was less than 0.1 µM.

In the case of `CCc1cc2c(s1)CCO[C@@]21CCN(CC2CN(C(=O)CN3CCOC3=O)C2)[C@@H](C)C1` [Compound 477], the IC50 was less than 0.1 µM.

As to `CCc1cc2c(s1)CCO[C@@]21CCN(CC2CN(C(=O)C3CNC(=O)O3)C2)[C@@H](C)C1` (stereo partly drawn) [Compound 478], the IC50 was 0.1 to 0.5 µM.

For the molecule `CCc1cc2c(s1)CCO[C@@]21CCN(CC2CN(C(=O)c3cc(CO)n[nH]3)C2)[C@@H](C)C1` [Compound 479], the IC50 is less than 0.1 µM.

For the molecule `CCc1cc2c(s1)CCO[C@@]21CCN(CC2CN(C(=O)CNC(C)=O)C2)[C@@H](C)C1` [Compound 480], the IC50 is 0.1 to 0.5 µM.

For `CCc1cc2c(s1)CCO[C@@]21CCN(CC2CN(C(=O)[C@H](C)NC(C)=O)C2)[C@@H](C)C1` [Compound 481], the IC50 fell in the range of 0.1 to 0.5 µM.

For the molecule `CCc1cc2c(s1)CCO[C@@]21CCN(CC2CN(C(=O)C(=O)c3cnc[nH]3)C2)[C@@H](C)C1` [Compound 482], the IC50 is less than 0.1 µM.

As to `CCc1cc2c(s1)CCO[C@@]21CCN(CC2CN(C(=O)Cn3cncn3)C2)[C@@H](C)C1` [Compound 483], the IC50 is 0.1 to 0.5 µM.

With `CCc1cc2c(s1)CCO[C@@]21CCN(CC2CN(C(=O)C3CCNC3=O)C2)[C@@H](C)C1` (stereo partly drawn) [Compound 484], the IC50 was less than 0.1 µM.

Consider `CCc1cc2c(s1)CCO[C@@]21CCN(CC2CN(C(=O)c3ccc(=O)[nH]c3)C2)[C@@H](C)C1` [Compound 485], for which the IC50 was less than 0.1 µM.

Consider `CCc1cc2c(s1)CCO[C@@]21CCN(CC2CN(C(=O)c3n[nH]c(=O)[nH]3)C2)[C@@H](C)C1` [Compound 486], for which the IC50 was in the range of 0.1 to 0.5 µM.

Consider `CCc1cc2c(s1)CCO[C@@]21CCN(CC2CN(C(=O)[C@H]3CCC(=O)N3)C2)[C@@H](C)C1` [Compound 487], for which the IC50 lay in the range of 0.1 to 0.5 µM.

Take `CCc1cc2c(s1)CCO[C@@]21CCN(CC2CN(C(=O)Cc3sc(O)nc3O)C2)[C@@H](C)C1` [Compound 488]: the IC50 is less than 0.1 µM.

Regarding `CCc1cc2c(s1)CCO[C@@]21CCN(CC2CN(C(=O)N(C)C)C2)[C@@H](C)C1` [Compound 490], the IC50 fell in the range of 0.5 to 1 µM.

As to `CCc1cc2c(s1)CCO[C@@]21CCN(CC2CN(S(=O)(=O)CC)C2)[C@@H](C)C1` [Compound 491, (2′S,4R)-2-ethyl-1′-[(1-ethylsulfonylazetidin-3-yl)methyl]-2′-methyl-spiro[6,7-dihydrothieno[3,2-c]pyran-4,4′-piperidine]], the IC50 was 0.1 to 0.5 µM.

For `CCc1cc2c(s1)CCO[C@@]21CCN(CC2CN(S(=O)(=O)CCO)C2)[C@@H](C)C1` [Compound 492], the IC50 lay in the range of 0.1 to 0.5 µM.

`CCc1cc2c(s1)CCO[C@@]21CCN(CC2CN(S(=O)(=O)c3ccccc3)C2)[C@@H](C)C1` [Compound 493]: the IC50 lay in the range of 0.5 to 1 µM.

Consider `CCc1cc2c(s1)CCO[C@@]21CCN(CC2CN(S(=O)(=O)C3CCOCC3)C2)[C@@H](C)C1` [Compound 494], for which the IC50 was in the range of 0.1 to 0.5 µM.

Consider `CCc1cc2c(s1)CCO[C@@]21CCN(CC2CN(S(=O)(=O)c3cnn4c3OCCC4)C2)[C@@H](C)C1` [Compound 495], for which the IC50 was in the range of 0.5 to 1 µM.

With `CCc1cc2c(s1)CCO[C@@]21CCN(CC2CN(S(=O)(=O)c3c[nH]cn3)C2)[C@@H](C)C1` [Compound 496], the IC50 was in the range of 0.5 to 1 µM.

With `CCC1=CC2=C(CCO[C@@]23CCN(Cc2cn(CCS(C)(=O)=O)nn2)[C@@H](C)C3)S1(=O)=O` [Compound 497, (2′S,4R)-2-ethyl-2′-methyl-1′-[[1-(2-methylsulfonylethyl)triazol-4-yl]methyl]spiro[6,7-dihydrothieno[3,2-c]pyran-4,4′-piperidine]1,1-dioxide], the IC50 was in the range of 0.1 to 0.5 µM.

`CCc1cc2c(s1)CCOC21CCN(Cc2cnn(C)c2)C(C)(C)C1` (stereo not drawn) [Compound 498, 2-ethyl-2′,2′-dimethyl-1′-[(1-methylpyrazol-4-yl)methyl]spiro[6,7-dihydrothieno[3,2-c]pyran-4,4′-piperidine]]: the IC50 lay within 0.5 to 1 µM.

For `Cc1cc2c(s1)CCO[C@@]21CCN(CC(O)C(N)=O)[C@@H](C)C1` (stereo partly drawn) [Compound 501], the IC50 lay within 0.1 to 0.5 µM.

With `Cc1cc2c(s1)CCO[C@@]21CCN(CC(O)C(N)=O)[C@@H](C)C1` (stereo partly drawn) [Compound 502], the IC50 was in the range of 0.1 to 0.5 µM.

Turning to `Cc1cc2c(s1)CCO[C@@]21CCN(CC(O)C(N)=O)[C@@H](C)C1` (stereo partly drawn) [Compound 503], the IC50 lay within 0.1 to 0.5 µM.

As to `Cc1cc2c(s1)CCO[C@@]21CCN(C2CCCC2O)[C@@H](C)C1` (stereo partly drawn) [Compound 504], the IC50 was in the range of 0.1 to 0.5 µM.

On to `Cc1cc2c(s1)CCO[C@@]21CCN(C2CCCC2O)[C@@H](C)C1` (stereo partly drawn) [Compound 505], for which the IC50 is less than 0.1 µM.

For `C[C@H]1C[C@@]2(CCN1CCO)OCCc1sc(Cl)cc12` [Compound 506], the IC50 fell in the range of 0.1 to 0.5 µM.

With `C[C@H](O)CN1CC[C@]2(C[C@@H]1C)OCCc1sc(Cl)cc12` [Compound 507], the IC50 lay within 0.1 to 0.5 µM.

Turning to `C[C@H]1C[C@@]2(CCN1C[C@H](O)C(N)=O)OCCc1sc(Cl)cc12` [Compound 508, (2S)-3-[(2′S,4R)-2-chloro-2′-methyl-spiro[6,7-dihydrothieno[3,2-c]pyran-4,4′-piperidine]-1′-yl]-2-hydroxy-propanamide], the IC50 fell in the range of 0.1 to 0.5 µM.

As to `C[C@H]1C[C@@]2(CCN1C[C@@H](O)C(N)=O)OCCc1sc(Cl)cc12` [Compound 509, (2R)-3-[(2′S,4R)-2-chloro-2′-methyl-spiro[6,7-dihydrothieno[3,2-c]pyran-4,4′-piperidine]-1′-yl]-2-hydroxy-propanamide], the IC50 lay in the range of 0.1 to 0.5 µM.

Turning to `Cc1cc2c(s1)CCO[C@@]21CCN(Cc2cn(CCS(C)(=O)=O)nn2)[C@@H](C)C1` [Compound 510, (2′S)-2,2′-dimethyl-1′-[[1-(2-methylsulfonylethyl)triazol-4-yl]methyl]spiro[6,7-dihydrothieno[3,2-c]pyran-4,4′-piperidine]], the IC50 is less than 0.1 µM.

With `C[C@H]1C[C@@]2(CCN1Cc1cn(CCS(C)(=O)=O)nn1)OCCc1sc(Cl)cc12` [Compound 511], the IC50 is less than 0.1 µM.

As to `Cc1sc2c(c1C)[C@]1(CCN(Cc3cn(CCS(C)(=O)=O)nn3)[C@@H](C)C1)OCC2` [Compound 512], the IC50 was 0.1 to 0.5 µM.
